# Data reported in ChEMBL document CHEMBL1201862, “PubChem BioAssay data set” (2004).
# Activity calls are given as the source filed them.
# Key:
# [1] = target: G-protein coupled receptor 55 (Homo sapiens, UniProt Q9Y2T6); assay: GPR55 antagonists blocking LPI-driven arrestin recruitment, primary screen, imaging, U2OS, beta-arrestin-GFP, LPI agonist (AID 2013); type: functional;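 also: antagonist potency measured as reduced agonist-driven arrestin aggregation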
# [2] = tested on: Streptococcus sp. 'group A'; assay: growth inhibition of control SK(-) GAS strain, dose response, counter-screen for streptokinase expression inhibitor project, luminescence, kanamycin, BacTiterGlo, confirmation (AID 1900); type: functional, organism-based
# [3] = target: T1, Streptokinase A (Streptococcus pyogenes serotype M1, UniProt P10520); assay: S. pyogenes streptokinase expression inhibitors, potency, dose response, plasminogen activation absorbance, OD405 (AID 1914); type: functional, Streptococcus pyogenes M1 GAS;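 also: secreted streptokinase activity via plasminogen activation per viability signal from cell pellet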
# T1 sequence (P10520 whole entry): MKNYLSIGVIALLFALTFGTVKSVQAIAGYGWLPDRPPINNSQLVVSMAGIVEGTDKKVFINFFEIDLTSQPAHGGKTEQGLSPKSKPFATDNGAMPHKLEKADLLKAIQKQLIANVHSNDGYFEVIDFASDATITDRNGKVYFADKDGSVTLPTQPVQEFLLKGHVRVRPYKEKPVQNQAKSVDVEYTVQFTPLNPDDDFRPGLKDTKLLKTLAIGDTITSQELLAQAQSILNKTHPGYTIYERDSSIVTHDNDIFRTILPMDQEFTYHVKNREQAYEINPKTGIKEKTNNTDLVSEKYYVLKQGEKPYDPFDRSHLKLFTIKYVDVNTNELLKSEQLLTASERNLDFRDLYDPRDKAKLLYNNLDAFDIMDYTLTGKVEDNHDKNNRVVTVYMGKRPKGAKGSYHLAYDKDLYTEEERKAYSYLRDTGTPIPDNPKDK
# [4] = target: T2, E3 ubiquitin-protein ligase XIAP (Homo sapiens, UniProt P98170); assay: Counter Screen using XIAP-Bir3 for Chemical Antagonists of Bir1/2 domains of IAP-family anti-apoptotic proteins. [Related pubchem assays (depositor defined):AID1018, AID1449, AID1514, AID1638, AID1749, AID1750, AID488957, AID488963]
# [5] = target: T2, E3 ubiquitin-protein ligase XIAP; assay: XIAP antagonists, biochemical, IAP family, fluorescence polarization (AID 1018); type: functional
# [6] = tested on: Streptococcus; assay: Group A Streptococcus viability loss, dose response, counter-screen for streptokinase expression inhibitor project, luminescence, BacTiterGlo (AID 1915); type: functional, organism-based;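 also: potency for reduction of bacterial viability or growth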
# [7] = Luminescence Cell-Based Dose Confirmation HTS to Identify Activators of 5'UTR Stem-Loop Driven Alpha-Synuclein mRNA Translation in H4 Neuroglioblastoma Cells. [Related pubchem assays: 1829 (Project Summary), 1814 (Primary HTS)]; type: functional
# [8] = Luminescence Cell-Based Dose Response HTS to Identify Activators of Luciferase Translation or Activity in H4 […] Cells. [Related pubchem assays: 1829 (Project Summary), 1814 (Primary HTS)]; type: functional
# [9] = tested on: H4; assay: Luminescence Cell-Based Dose Response HTS to Identify Activators of 5'UTR Stem-Loop Driven Prion Protein mRNA Translation in H4 Neuroglioblastoma Cells. [Related pubchem assays: 1829 (Project Summary), 1814 (Primary HTS)]; type: functional; conditions: Homo sapiens
# [10] = microbe, parasite or virus in culture; type: functional; conditions: Mycobacterium tuberculosis
# [11] = THP-1 cell cytotoxicity, dose response, cytotoxicity control for non-replicating M. tuberculosis project (AID 489025); type: functional
# [12] = HepG2 cell cytotoxicity, dose response, cytotoxicity control for non-replicating M. tuberculosis project (AID 489018); type: functional; conditions: Mycobacterium tuberculosis
# [13] = Vero E6 cell cytotoxicity, dose response, cytotoxicity control for non-replicating M. tuberculosis project, secondary assay (AID 492998); type: functional, VeroE6; conditions: Vero C1008
# [14] = cells; type: functional
# [15] = target: T3, Replicative DNA helicase DnaB (Mycobacterium tuberculosis, UniProt P9WMR3); assay: DnaB intein splicing inhibitors, dose response, biochemical, cell-free fluorescence (AID 449749); type: functional
# T3 sequence (P9WMR3 whole entry): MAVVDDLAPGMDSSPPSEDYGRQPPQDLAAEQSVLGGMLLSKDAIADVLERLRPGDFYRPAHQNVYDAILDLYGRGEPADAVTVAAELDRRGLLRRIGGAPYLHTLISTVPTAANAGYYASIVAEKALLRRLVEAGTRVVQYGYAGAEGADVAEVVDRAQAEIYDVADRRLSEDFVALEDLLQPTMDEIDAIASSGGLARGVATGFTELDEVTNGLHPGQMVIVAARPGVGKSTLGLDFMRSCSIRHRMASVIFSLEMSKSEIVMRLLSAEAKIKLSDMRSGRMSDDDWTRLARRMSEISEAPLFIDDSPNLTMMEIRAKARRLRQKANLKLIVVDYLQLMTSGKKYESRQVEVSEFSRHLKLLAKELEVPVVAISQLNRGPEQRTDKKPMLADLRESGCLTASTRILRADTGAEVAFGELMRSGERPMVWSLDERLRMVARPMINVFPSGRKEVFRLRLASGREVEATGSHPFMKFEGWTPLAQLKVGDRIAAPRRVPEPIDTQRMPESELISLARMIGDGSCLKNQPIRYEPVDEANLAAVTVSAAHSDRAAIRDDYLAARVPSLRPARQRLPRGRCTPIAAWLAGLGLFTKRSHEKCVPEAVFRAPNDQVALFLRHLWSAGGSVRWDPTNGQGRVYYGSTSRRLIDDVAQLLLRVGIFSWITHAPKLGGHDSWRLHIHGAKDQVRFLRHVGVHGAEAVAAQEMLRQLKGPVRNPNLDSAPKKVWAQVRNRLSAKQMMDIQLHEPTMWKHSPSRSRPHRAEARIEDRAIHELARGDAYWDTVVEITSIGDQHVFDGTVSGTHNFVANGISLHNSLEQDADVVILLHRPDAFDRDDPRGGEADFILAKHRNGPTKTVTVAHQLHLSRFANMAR
# [16] = tested on: Vero; assay: Vero cell cytotoxicity, cytotoxicity control for flavivirus capping enzyme inhibitors (AID 588742); type: functional; conditions: Chlorocebus sabaeus
# [17] = target: T4, Protein RecA (Mycobacterium tuberculosis, UniProt P9WHJ3); assay: Fluorescence Cell-Free Homogeneous Dose Retest to Identify Inhibitors of RecA-Intein Splicing Activity. [Related pubchem assays (depositor defined):AID2097, AID2223, AID489010, AID492950]; type: functional
# T4 sequence (P9WHJ3 whole entry): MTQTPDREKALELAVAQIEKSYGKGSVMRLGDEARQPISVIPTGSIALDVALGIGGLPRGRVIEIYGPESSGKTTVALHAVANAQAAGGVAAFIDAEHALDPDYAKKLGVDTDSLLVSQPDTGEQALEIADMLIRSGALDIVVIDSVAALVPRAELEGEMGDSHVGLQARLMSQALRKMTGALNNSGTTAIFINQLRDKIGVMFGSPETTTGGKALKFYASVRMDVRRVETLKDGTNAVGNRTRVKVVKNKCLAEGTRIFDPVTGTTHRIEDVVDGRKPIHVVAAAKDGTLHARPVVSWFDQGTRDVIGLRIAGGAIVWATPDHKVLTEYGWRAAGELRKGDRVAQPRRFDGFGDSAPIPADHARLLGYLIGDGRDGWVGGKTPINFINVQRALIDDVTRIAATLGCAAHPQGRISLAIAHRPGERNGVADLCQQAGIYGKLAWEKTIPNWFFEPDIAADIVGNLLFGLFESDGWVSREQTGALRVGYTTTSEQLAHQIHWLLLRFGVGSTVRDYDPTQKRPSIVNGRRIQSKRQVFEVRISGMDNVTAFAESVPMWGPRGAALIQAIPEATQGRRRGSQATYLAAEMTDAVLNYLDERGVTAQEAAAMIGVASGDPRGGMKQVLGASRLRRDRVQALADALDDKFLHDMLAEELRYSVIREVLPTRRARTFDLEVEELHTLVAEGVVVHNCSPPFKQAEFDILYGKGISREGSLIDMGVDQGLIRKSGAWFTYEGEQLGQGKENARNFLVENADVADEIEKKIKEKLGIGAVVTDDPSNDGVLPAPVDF
# [18] = target: Genome polyprotein (dengue virus type 2, UniProt P29990); assay: Dengue-2 NS5 methyltransferase inhibitors, primary screen, biochemical, confirmation dose response (AID 588689); type: functional
# [19] = target: T5, Polyadenylate-binding protein 1 (Homo sapiens, UniProt P11940); assay: PABP1 MLLE–PAM2 interaction inhibitors, dose response, miRNA deadenylation inhibitor project, biochemical, fluorescence polarization, Cy5-PAM2 peptide, secondary (AID 602260); type: functional; conditions: read-out: IC50_Mean
# [20] = target: T5, Polyadenylate-binding protein 1; assay: PABP1 MLLE–PAM2 binding inhibitor potency, dose response, biochemical, fluorescence polarization, FITC-PAM2 peptide (AID 602259); type: functional; conditions: read-out: IC50_Mean
# [21] = inhibitors of Vif binding to APOBEC3G peptide, primary screen, biochemical, TR-FRET, GST-Vif 1-94, biotin-A3G peptide, dose response retest (AID 1117319); type: functional;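 also: TR-FRET signal of purified GST-Vif binding a biotinylated A3G peptide; inhibitors lower the FRET signal by blocking Vif and A3G binding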
# [22] = target: T6, Bcl-2-related protein A1 (Mus musculus, UniProt Q07440); type: functional;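 also: confirmatory dose–response counterscreen on Bfl-1, used to check hits from a UBC13 polyubiquitin inhibitor campaign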
# T6 sequence (Q07440 whole entry): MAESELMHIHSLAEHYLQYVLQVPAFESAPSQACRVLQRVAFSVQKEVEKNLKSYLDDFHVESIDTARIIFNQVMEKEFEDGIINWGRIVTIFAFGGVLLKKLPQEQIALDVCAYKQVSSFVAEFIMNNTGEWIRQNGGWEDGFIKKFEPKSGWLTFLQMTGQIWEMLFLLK
# [23] = target: T7, Ubiquitin-conjugating enzyme E2 N (Homo sapiens, UniProt P61088); type: functional
# T7 sequence (P61088 whole entry): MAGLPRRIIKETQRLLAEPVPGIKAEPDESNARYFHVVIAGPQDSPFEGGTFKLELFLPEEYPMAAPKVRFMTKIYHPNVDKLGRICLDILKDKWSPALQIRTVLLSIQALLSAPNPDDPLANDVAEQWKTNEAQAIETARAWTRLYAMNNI
# [24] = target: T7, Ubiquitin-conjugating enzyme E2 N; type: functional; remark: listed apart in the source
# [25] = target: T8, Mannose-6-phosphate isomerase (Homo sapiens, UniProt P34949); assay: PMI enzyme inhibitors, confirmation, biochemical, fluorescence intensity (AID 1535)
# T8 sequence (P34949 whole entry): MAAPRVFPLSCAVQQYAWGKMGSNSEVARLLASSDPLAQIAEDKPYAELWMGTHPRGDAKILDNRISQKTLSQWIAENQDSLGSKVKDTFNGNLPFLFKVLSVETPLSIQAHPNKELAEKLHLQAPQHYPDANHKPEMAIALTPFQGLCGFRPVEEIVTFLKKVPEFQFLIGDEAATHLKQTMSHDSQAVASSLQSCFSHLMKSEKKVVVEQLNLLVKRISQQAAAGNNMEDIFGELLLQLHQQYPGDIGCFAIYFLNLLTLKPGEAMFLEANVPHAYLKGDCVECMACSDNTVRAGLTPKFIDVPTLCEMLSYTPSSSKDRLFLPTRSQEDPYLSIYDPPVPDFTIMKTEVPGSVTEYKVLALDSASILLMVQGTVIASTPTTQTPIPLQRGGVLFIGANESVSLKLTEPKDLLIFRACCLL
# [26] = target: Phosphomannomutase 2 (Homo sapiens, UniProt O15305); assay: Counter screen SAR assay for PMM2 inhibitors via a fluorescence intensity assay. [Related pubchem assays (depositor defined):AID1545, AID1574]
# Phosphomannomutase 2, sequence (O15305 whole entry): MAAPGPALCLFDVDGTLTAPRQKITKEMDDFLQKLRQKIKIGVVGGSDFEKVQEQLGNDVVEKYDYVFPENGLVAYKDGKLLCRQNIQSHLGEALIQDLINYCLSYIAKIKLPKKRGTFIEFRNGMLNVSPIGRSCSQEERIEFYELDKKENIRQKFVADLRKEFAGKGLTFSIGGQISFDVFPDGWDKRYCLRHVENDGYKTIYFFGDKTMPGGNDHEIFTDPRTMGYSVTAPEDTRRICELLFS
# T2 sequence (P98170 whole entry): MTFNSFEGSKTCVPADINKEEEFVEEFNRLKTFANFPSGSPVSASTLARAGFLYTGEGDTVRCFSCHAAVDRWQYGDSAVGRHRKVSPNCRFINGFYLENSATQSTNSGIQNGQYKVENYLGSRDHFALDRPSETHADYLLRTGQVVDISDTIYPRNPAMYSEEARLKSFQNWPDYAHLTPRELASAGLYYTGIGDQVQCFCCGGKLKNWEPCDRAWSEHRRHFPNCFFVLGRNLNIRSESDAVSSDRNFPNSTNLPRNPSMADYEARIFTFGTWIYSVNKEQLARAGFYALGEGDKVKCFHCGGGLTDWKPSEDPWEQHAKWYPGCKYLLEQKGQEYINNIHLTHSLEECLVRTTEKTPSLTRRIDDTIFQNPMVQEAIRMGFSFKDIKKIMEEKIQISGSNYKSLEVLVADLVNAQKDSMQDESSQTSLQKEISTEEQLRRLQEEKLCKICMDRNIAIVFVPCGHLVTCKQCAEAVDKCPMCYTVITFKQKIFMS
# T5 sequence (P11940 whole entry): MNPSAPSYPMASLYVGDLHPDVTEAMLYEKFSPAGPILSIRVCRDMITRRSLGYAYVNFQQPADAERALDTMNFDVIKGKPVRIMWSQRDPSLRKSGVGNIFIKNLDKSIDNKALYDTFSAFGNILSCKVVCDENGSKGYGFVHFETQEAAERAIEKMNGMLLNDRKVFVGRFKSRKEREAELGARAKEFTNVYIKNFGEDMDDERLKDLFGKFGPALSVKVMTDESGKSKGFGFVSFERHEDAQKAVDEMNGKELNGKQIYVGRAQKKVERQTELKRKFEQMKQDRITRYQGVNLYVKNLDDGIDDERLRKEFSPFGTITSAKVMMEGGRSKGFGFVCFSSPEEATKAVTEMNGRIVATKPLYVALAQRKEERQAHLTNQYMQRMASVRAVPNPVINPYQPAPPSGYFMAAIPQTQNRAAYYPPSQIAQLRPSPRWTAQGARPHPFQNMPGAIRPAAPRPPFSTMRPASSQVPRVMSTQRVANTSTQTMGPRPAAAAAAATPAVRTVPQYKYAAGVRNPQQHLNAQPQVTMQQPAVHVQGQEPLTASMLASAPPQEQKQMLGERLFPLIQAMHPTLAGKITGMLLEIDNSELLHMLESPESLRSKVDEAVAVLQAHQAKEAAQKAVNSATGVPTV
# G-protein coupled receptor 55, sequence (Q9Y2T6 whole entry): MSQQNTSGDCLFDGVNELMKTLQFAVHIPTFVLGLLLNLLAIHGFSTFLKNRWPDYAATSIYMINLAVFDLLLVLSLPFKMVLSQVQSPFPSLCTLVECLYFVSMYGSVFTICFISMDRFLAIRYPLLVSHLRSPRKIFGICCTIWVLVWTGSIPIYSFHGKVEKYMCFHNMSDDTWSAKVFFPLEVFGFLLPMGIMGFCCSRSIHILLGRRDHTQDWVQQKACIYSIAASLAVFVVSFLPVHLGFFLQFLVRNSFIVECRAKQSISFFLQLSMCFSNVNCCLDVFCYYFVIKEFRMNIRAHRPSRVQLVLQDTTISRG
# Genome polyprotein, sequence (P29990 2492-3391 limits assumed): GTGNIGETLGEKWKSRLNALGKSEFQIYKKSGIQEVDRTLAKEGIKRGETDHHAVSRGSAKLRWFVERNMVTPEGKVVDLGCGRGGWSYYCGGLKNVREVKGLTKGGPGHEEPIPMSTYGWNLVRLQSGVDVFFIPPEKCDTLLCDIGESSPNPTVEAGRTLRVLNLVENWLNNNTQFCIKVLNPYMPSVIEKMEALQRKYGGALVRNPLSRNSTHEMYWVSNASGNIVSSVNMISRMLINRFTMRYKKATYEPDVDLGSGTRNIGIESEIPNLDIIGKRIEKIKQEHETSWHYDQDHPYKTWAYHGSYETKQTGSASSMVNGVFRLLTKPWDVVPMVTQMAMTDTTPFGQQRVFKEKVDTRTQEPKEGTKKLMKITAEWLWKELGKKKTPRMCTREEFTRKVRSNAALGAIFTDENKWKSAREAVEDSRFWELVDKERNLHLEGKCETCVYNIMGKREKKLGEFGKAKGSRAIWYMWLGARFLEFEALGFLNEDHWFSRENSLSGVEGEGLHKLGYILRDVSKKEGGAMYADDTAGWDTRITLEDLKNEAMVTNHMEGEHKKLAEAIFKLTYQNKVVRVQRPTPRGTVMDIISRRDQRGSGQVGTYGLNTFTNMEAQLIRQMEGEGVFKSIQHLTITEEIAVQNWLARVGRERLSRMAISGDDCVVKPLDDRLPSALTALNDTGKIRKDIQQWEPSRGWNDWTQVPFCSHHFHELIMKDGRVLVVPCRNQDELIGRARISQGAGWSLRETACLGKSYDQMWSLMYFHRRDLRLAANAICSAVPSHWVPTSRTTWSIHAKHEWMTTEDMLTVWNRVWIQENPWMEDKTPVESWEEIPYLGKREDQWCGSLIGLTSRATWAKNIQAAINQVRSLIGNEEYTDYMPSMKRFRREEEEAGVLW
compound,measurement,setting,value
O=C1/C(=C/c2ccncc2)SC(=S)N1C1CCS(=O)(=O)C1 (stereo not drawn),IC50,[1],5.49 µM (active)
COc1ccc(CCNC(=O)CSc2nncn2N)cc1OC,EC50,[2],> 150 µM (not active)
same,EC50,[3],> 150 µM (not active)
same,IC50,[4],> 100 µM (inactive)
same,IC50,[5],> 100 µM (not active)
same,EC50,[6],> 150 µM (not active)
O=[N+]([O-])c1cc([N+](=O)[O-])c2cc3ccccc3nc2c1,EC50,[7],> 120 µM (not active)
same,EC50,[8],> 120 µM (not active)
same,EC50,[9],32 µM (active)
same,CC50,[10],18.9 µM (active)
same,CC50,[11],5.67 µM (active)
same,CC50,[12],14 µM (active)
same,CC50,[13],12.7 µM (active)
same,IC50,[14],0.39 µM (active)
same,AC50,[15],> 380 µM (inconclusive)
same,CC50,[16],10.1 µM (active)
same,EC50,[17],1.17 µM (active)
same,IC50,[18],6.37 µM (active)
same,IC50,[19],> 66 µM (inactive)
same,IC50,[20],> 66 µM (inactive)
O=C(O)CN1C(=O)COc2cc(S(=O)(=O)N3CCCC3)ccc21,IC50,[4],> 100 µM (inactive)
same,IC50,[5],> 100 µM (not active)
same,IC50,[21],> 100 µM (active)
COc1ccc(/C=C/C(=O)Nc2c(C)nn(C)c2C)cc1COc1ccc(Cl)cc1Br,IC50,[22],3.32 µM (active)
same,IC50,[23],15.6 µM (active)
same,IC50,[24],17.4 µM (active)
COCCNP(=O)(c1ccccc1)c1nc2ccccc2s1 (stereo not drawn),IC50,[25],> 50 µM (inactive)
same,IC50,[26],> 100 µM (inactive)
